Test results taken from ChEMBL document CHEMBL4419164, “Methods and compositions for inhibiting cnksr1” (2018).
Values belong to the molecule of their own block, whether it stands above or below them. Activity calls are given as the source filed them. The rule behind the calls is not given here.

Experiments:
[1] = biological target: T1, Connector enhancer of kinase suppressor of ras 1 (Homo sapiens, UniProt Q969H4); assay: Binding affinity to CNKSR1 PH-domain (unknown origin) by SPR spectroscopy
T1 sequence (Q969H4 whole entry): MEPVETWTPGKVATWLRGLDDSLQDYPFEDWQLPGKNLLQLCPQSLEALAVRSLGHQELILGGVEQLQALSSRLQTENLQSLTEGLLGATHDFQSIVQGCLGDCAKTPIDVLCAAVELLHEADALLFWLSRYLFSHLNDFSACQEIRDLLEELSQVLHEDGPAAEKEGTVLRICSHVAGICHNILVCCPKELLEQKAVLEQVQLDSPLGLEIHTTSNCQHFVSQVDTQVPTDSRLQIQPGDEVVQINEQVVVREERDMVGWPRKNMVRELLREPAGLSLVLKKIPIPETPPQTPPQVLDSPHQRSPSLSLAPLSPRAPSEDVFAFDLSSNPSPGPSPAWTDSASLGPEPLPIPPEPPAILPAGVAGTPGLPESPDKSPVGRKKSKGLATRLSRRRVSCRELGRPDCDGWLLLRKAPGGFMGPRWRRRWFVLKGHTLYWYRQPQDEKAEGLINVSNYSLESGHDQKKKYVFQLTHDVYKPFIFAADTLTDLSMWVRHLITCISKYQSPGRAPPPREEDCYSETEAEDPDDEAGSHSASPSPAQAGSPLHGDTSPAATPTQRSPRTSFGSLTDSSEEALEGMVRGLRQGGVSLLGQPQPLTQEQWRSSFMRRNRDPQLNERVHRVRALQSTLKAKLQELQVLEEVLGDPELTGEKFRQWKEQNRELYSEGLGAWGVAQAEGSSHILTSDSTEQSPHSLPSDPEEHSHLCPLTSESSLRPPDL

[2] = biological target: RAC-alpha serine/threonine-protein kinase (Homo sapiens, UniProt P31749); assay: Binding affinity to AKT PH-domain (unknown origin) at 0.01 to 50 uM by SPR spectroscopy
Chain of RAC-alpha serine/threonine-protein kinase (P31749 whole entry): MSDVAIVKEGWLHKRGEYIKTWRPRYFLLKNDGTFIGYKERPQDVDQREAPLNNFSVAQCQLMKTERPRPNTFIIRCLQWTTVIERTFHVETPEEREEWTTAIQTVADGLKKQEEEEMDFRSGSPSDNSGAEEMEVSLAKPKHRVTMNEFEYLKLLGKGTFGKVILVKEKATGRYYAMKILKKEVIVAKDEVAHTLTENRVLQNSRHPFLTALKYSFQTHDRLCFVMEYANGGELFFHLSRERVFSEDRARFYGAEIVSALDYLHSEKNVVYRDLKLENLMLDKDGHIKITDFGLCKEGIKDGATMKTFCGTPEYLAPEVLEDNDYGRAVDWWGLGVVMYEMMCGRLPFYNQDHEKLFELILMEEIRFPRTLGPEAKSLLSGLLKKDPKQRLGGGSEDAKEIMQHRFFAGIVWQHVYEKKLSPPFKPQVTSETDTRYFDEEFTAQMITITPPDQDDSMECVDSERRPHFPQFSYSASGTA

[3] = Growth inhibition of human […] cells incubated for 3 days; type: functional; conditions: 72 h
[4] = biological target: T2, Connector enhancer of kinase suppressor of ras 1 (Homo sapiens) (UniProt Q969H4); assay: Inhibition of CNKSR1 (unknown origin) assessed as reduction in inhibition of KRas signaling effectors by measuring p-AKT levels at 20 uM by cell based assay
T2 sequence (whole entry): T1 sequence (Q969H4 whole entry)

HCC515 [5] = assay: Growth inhibition of human HCC515 cells incubated for 3 days; type: functional, cell-based; conditions: HCC515, 72 h
NCI-H2122 [6] = assay: Growth inhibition of human NCI-H2122 cells incubated for 3 days; type: functional, cell-based; conditions: NCI-H2122, 72 h
[7] = biological target: T2, Connector enhancer of kinase suppressor of ras 1 (Homo sapiens); assay: Inhibition of CNKSR1 (unknown origin) assessed as reduction in inhibition of KRas signaling effectors by measuring GTP-RalA levels at 20 uM by cell based assay
HCC95 = assay: Growth inhibition of human HCC95 cells incubated for 3 days; type: functional, cell-based; conditions: HCC95, 72 h
[8] = biological target: T2, Connector enhancer of kinase suppressor of ras 1 (Homo sapiens); assay: Inhibition of CNKSR1 (unknown origin) assessed as reduction in inhibition of KRas signaling effectors by measuring p-MAPK levels at 20 uM by cell based assay
Pleckstrin = biological target: T3, Pleckstrin (Homo sapiens, UniProt P08567); assay: Binding affinity to PLEK PH-domain (unknown origin) at 0.01 to 50 uM by SPR spectroscopy
T3 sequence (P08567 whole entry): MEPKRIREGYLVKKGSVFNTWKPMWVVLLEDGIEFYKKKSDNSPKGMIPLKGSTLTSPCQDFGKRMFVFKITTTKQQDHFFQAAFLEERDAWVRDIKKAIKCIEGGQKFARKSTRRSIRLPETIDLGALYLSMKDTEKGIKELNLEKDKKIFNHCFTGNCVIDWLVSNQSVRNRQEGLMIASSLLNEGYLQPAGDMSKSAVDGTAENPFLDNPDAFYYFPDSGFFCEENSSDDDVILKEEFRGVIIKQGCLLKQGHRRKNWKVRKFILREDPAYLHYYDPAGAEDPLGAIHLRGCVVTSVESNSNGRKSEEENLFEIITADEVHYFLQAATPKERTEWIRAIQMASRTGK

[9] = Terminal half life in iv dosed mouse; type: ADME, organism-based; conditions: in vivo, read-out: beta t1/2
[10] = Half life in C57BL6 mouse at 250 mg/kg, po dosed via gavage as single administration; type: ADME, organism-based; conditions: in vivo
[11] = Cmax in C57BL6 mouse plasma at 250 mg/kg, po dosed via gavage as single administration; type: ADME, organism-based; parameters: dose 250 mg/kg, route oral
NCI-H2122 [12] = assay: Growth inhibition of human NCI-H2122 cells relative to control; type: functional, cell-based
Homo sapiens [13] = species: Homo sapiens; assay: Selectivity index, ratio of binding affinity to AKT PH-domain (unknown origin) by SPR spectroscopy to binding affinity to CNKSR1 PH-domain (unknown origin) by SPR spectroscopy
A549 [14] = assay: Growth inhibition of human A549 cells relative to control; type: functional, cell-based
NCI-H1373 = assay: Growth inhibition of human NCI-H1373 cells relative to control; type: functional, cell-based
Homo sapiens [15] = species: Homo sapiens; assay: Selectivity index, ratio of binding affinity to TIAM1 PH-domain (unknown origin) by SPR spectroscopy to binding affinity to CNKSR1 PH-domain (unknown origin) by SPR spectroscopy
HCC515 [16] = assay: Growth inhibition of human HCC515 cells relative to control; type: functional, cell-based
Homo sapiens [17] = species: Homo sapiens; assay: Selectivity index, ratio of binding affinity to PDPK1 PH-domain (unknown origin) by SPR spectroscopy to binding affinity to CNKSR1 PH-domain (unknown origin) by SPR spectroscopy
[18] = biological target: Rho guanine nucleotide exchange factor TIAM1 (Homo sapiens) (UniProt Q13009); assay: Binding affinity to TIAM1 PH-domain (unknown origin) at 0.01 to 50 uM by SPR spectroscopy
Chain of Rho guanine nucleotide exchange factor TIAM1 (Homo sapiens) (Q13009 whole entry): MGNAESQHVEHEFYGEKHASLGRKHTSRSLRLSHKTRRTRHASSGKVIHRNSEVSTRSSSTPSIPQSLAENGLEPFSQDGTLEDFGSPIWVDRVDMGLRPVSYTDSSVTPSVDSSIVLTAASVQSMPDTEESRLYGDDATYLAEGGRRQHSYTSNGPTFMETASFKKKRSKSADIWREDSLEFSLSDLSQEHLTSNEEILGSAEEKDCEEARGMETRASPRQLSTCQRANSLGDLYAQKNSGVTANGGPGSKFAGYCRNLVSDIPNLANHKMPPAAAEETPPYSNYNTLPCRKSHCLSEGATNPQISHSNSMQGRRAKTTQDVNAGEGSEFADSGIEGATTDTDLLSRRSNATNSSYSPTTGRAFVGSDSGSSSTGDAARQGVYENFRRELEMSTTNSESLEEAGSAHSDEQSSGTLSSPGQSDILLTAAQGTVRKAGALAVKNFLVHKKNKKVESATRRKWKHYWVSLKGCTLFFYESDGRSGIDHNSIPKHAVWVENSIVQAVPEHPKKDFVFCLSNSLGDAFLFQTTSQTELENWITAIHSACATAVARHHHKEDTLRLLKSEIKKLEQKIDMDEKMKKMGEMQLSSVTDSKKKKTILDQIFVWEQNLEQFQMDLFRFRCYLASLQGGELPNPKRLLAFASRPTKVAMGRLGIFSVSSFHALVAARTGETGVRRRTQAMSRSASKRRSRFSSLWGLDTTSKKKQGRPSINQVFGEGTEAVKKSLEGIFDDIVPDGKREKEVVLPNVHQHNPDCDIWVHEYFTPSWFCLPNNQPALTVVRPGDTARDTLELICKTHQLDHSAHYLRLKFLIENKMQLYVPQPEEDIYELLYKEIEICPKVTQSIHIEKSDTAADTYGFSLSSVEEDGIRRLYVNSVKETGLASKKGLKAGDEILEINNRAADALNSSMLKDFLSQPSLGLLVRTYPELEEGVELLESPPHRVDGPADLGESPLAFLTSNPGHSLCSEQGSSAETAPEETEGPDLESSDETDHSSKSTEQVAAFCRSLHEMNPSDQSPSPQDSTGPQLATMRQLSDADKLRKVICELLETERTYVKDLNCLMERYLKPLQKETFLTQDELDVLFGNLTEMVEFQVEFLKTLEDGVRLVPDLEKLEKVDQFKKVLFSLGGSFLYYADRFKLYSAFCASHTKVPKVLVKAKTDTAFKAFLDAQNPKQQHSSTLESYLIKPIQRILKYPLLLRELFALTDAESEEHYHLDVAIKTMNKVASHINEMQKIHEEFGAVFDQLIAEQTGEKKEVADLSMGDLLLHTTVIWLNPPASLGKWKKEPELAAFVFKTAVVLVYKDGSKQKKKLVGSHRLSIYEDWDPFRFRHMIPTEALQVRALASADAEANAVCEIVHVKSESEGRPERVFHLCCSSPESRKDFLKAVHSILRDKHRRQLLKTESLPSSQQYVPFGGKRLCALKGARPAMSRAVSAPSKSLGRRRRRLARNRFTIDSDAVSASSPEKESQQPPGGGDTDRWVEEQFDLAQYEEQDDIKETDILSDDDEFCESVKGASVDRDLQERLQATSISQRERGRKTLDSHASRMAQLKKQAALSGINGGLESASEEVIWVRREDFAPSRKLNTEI

[19] = biological target: T4, 3-phosphoinositide-dependent protein kinase 1 (Homo sapiens) (UniProt O15530); assay: Binding affinity to PDPK1 PH-domain (unknown origin) at 0.01 to 50 uM by SPR spectroscopy
T4 sequence (whole entry): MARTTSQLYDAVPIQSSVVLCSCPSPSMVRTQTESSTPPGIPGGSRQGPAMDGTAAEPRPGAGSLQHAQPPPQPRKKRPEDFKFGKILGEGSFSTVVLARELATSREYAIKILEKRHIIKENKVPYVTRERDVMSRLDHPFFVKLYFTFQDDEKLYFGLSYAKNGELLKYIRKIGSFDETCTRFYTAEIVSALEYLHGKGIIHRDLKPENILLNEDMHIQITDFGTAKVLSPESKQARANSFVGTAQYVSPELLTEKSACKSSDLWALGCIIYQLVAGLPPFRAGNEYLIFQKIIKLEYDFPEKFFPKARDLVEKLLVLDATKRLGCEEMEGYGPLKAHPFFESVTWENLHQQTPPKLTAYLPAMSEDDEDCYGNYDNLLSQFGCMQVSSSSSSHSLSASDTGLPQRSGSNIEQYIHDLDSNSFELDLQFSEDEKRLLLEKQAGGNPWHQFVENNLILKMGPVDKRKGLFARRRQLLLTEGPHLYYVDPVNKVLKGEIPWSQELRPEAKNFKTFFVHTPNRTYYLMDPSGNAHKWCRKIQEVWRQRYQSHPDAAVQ

[20] = biological target: T2, Connector enhancer of kinase suppressor of ras 1 (Homo sapiens); assay: Inhibition of GFP-tagged CNKSR1 (unknown origin) expressed in HEK293T cells assessed as blocking of membrane colocalization of CNKSR1 and mutant-KRas at plasma membrane at 50 uM incubated for 4 hrs by confocal imaging assay; type: cell-based
A549 [21] = assay: Antitumor activity against human A549 cells xenografted in nu/nu mouse assessed as reduction in tumor volume at 200 mg/kg, ip dosed daily for 8 days co-treated with 75 mg/kg, po erlotinib; type: functional, organism-based
[22] = biological target: T2, Connector enhancer of kinase suppressor of ras 1 (Homo sapiens); assay: Inhibition of GFP-tagged CNKSR1 (unknown origin) expressed in HEK293T cells assessed as reduction in total mutant-KRas protein at 50 uM incubated for 4 hrs by confocal imaging assay; type: cell-based
[23] = biological target: T2, Connector enhancer of kinase suppressor of ras 1 (Homo sapiens); assay: Inhibition of GFP-tagged CNKSR1 (unknown origin) expressed in HEK293T cells assessed as inhibition of direct binding of CNKSR1 to mut-KRAS at 50 uM incubated for 4 hrs by fluorescence lifetime imaging microscopy; type: cell-based
A549 [24] = assay: Antitumor activity against human A549 cells xenografted in nu/nu mouse assessed as reduction in tumor volume at 200 mg/kg, ip dosed daily for 8 days; type: functional, organism-based

Kd ([1]; read-out: Kd): 5.34 µM
Kd ([2]; read-out: Kd): 0.000474 µM
SMILES: O=C(O)c1ccc2c(c1)C1C=CCC1C(C(=O)O)N2 (stereo not drawn)

Activity [2]: Active
SMILES: COc1ccc(OC)c(-c2cc(C(=O)O)c3nc(C)[nH]c3n2)c1

Kd ([1]; read-out: Kd): 0.000196 µM
Activity [2]: Active
SMILES: O=C(O)CCc1ccc(-c2ccc(Br)cc2)n1CCC(=O)O

Kd ([1]; read-out: Kd): 1.01 µM
Kd ([2]; read-out: Kd): 1.28 µM
SMILES: Cc1ccc(-c2nc(SCC(=O)O)c3c(=O)n(C)c(=O)n(C)c3n2)cc1

inhibition [20]: Active
inhibition [4]: Active
IC50 (HCC515 [5]): 37 µM
inhibition [22]: Active
half-life [9]: 4.33 h
IC50 (NCI-H2122 [6]): > 100 µM
inhibition [7]: Active
IC50 (HCC95): 45 µM
inhibition [23]: Active
inhibition [8]: Active
SMILES: Cc1ccc(-c2csc(Cn3nc(CC4OCCCO4)c4ccccc4c3=O)n2)cc1
IC50 [3]: 38 µM
TGI (A549 [21]): Active
TGI (A549 [24]): Active

Kd ([1]; read-out: Kd): 1.13 µM
Activity [2]: Active
SMILES: O=C(O)COc1cc(OCC(=O)O)c2c3c(c(=O)oc2c1)CCCC3

Second part, the molecule before the results:

SMILES: Cc1ccc(-c2csc(Cn3nc(CC4OCC(=O)O4)c4ccccc4c3=O)n2)cc1 (stereo not drawn)
IC50 [3]: 56 µM
inhibition [4]: Active
IC50 (HCC515 [5]): 34 µM
IC50 (NCI-H2122 [6]): > 100 µM
inhibition [7]: Active
IC50 (HCC95): 40 µM
inhibition [8]: Active

SMILES: CCOC(=O)/C=C/c1c(O)c(OC)cc(NS(=O)(=O)c2cccs2)c1SC
Kd (Pleckstrin): 300 µM

SMILES: CCOC(=O)/C=C/c1cc(NS(=O)(=O)c2cccs2)c2c(c1O)OCO2
Kd (Pleckstrin): 261 µM

SMILES: Cc1ccc(-c2csc(Cn3nc(CC=O)c4ccccc4c3=O)n2)cc1
half-life [9]: 0.583 h

SMILES: O=C(O)CSc1cc(NS(=O)(=O)c2cccs2)c2ccccc2c1O
Kd ([1]; read-out: Kd): 3.64 µM
IC50 [3]: 7 µM
IC50 (HCC515 [5]): 11 µM
IC50 (NCI-H2122 [6]): 34 µM
IC50 (HCC95): 13 µM
Activity [2]: Active

SMILES: Cc1ccc(-c2csc(Cn3nc(CC(=O)O)c4ccccc4c3=O)n2)cc1
IC50 [3]: > 100 µM
inhibition [4]: Active
IC50 (HCC515 [5]): > 100 µM
half-life [9]: 1.2 h
half-life [10]: 13 h
IC50 (NCI-H2122 [6]): > 100 µM
inhibition [7]: Active
IC50 (HCC95): > 100 µM
inhibition [8]: Active
Cmax [11]: 230 µM

SMILES: Cc1ccc(-c2csc(Cn3nc(CC(=O)N4CCN(C)CC4)c4ccccc4c3=O)n2)cc1
half-life [9]: 5.45 h

SMILES: Cc1c(Cl)ccc2c(C(=O)O)cc(-c3cccnc3)nc12
Activity [2]: Active

SMILES: Cc1ccc(-c2csc(Cn3nc(Cc4nccs4)c4ccccc4c3=O)n2)cc1
IC50 [3]: 49 µM
inhibition [4]: Active
IC50 (HCC515 [5]): 28 µM
half-life [9]: 4.08 h
IC50 (NCI-H2122 [6]): 26 µM
inhibition [7]: Active
IC50 (HCC95): 46 µM
inhibition [8]: Active

SMILES: Nc1cccc(-c2cc(C(=O)O)c3cc(Cl)ccc3n2)c1
Activity [2]: Active

SMILES: COc1c(/C=C/C(=O)O)cc(NS(=O)(=O)c2cccs2)c2c1OCO2
Kd [1]: Not Active
Kd [2]: Not Active

SMILES: CC(=O)Nc1cccc(-n2nnc(SCC(=O)c3cc(-c4ccccc4)no3)n2)c1
growth inhibition (GI) (NCI-H2122 [12]): Active
Ratio (Homo sapiens [13]): 50 to 100
growth inhibition (GI) (A549 [14]): Active
growth inhibition (GI) (NCI-H1373): Active
Ratio (Homo sapiens [15]): 50 to 100
growth inhibition (GI) (HCC515 [16]): Active
Ratio (Homo sapiens [17]): 50 to 100
Activity [18]: inactive
Activity [19]: inactive
Activity [2]: inactive

SMILES: CCNC(=O)Cc1nn(Cc2nc(-c3ccc(C)cc3)cs2)c(=O)c2ccccc12
half-life [9]: 0.467 h
TGI (A549 [24]): Active
